Legend:
[1] = Apparent terminal half-life (0-168h) of total radioactivity following single oral administration of [14C] aliskiren hemifumarate at 3 mg.Kg-1 level in marmoset; assay type: ADME, organism-based, Callithrix jacchus, Plasma; conditions: in vivo
[2] = Apparent terminal half-life (0-168h) of total radioactivity following single intravenous administration of [14C] aliskiren hemifumarate at 1 mg.Kg-1 level in marmoset; assay type: ADME, organism-based, Callithrix jacchus, Plasma; conditions: in vivo
[3] = Excretion (0-168h) of radioactivity in urine following oral administration of [14C] aliskiren hemifumarate at 3 mg.Kg-1 level in marmoset; assay type: ADME, organism-based, Callithrix jacchus; conditions: in vivo
[4] = Excretion (0-168h) of radioactivity in faeces following intravenous administration of [14C] aliskiren hemifumarate at 1 mg.Kg-1 level in marmoset; assay type: ADME, organism-based, Callithrix jacchus, Feces; conditions: in vivo
[5] = Biliary elimination of aliskiren following single oral dose of [14C] aliskiren hemifumarate at 500 mg.Kg-1 level in mouse; assay type: ADME, organism-based, TgRasH2, Bile; conditions: in vivo
[6] = Excretion of radioactivity (0-24h) in urine following single intravenous dose of 10 mg.Kg-1 [14C] aliskiren hemifumarate in mouse; assay type: ADME, organism-based, TgRasH2; conditions: in vivo
[7] = Excretion of radioactivity (24-48h) in faeces following single oral dose of 500 mg.Kg-1 [14C] aliskiren hemifumarate in mouse; assay type: ADME, organism-based, TgRasH2, Feces; conditions: in vivo
[8] = Excretion of radioactivity (0-24h) in urine following single oral dose of 100 mg.Kg-1 [14C] aliskiren hemifumarate in rat; assay type: ADME, organism-based, Albino HAN:WIST; conditions: in vivo
[9] = Mean excretion of radioactivity (48-72h) in urine and faeces following single oral dose of 100 mg.Kg-1 [14C] aliskiren hemifumarate in rat; assay type: ADME, organism-based, Albino HAN:WIST, Urine/Feces; conditions: in vivo
[10] = Mean excretion of radioactivity (0-96h) in urine and faeces following single oral dose of 100 mg.Kg-1 [14C] aliskiren hemifumarate in rat; assay type: ADME, organism-based, Albino HAN:WIST, Urine/Feces; conditions: in vivo
Cytochrome P450 3A4 = Cytochrome P450 3A4 (Homo sapiens, UniProt P08684); test: Activity of human recombinant CYP3A4 assessed as enzyme contribution (% total relative CL) towards [14C]SPP100 hemifumarate metabolism in human liver microsome; assay type: ADME; conditions: microsomes
hERG (KCNH2) = hERG (KCNH2) (Homo sapiens, UniProt Q12809); test: Effects of 1000 uM aliskiren hemifumarate on current through cloned hERG channel expressed in human embryonic kidney cell; assay type: cell-based; set-up: conc 1000 uM, dose level High; conditions: HEK293 cells that express cloned hERG channel, read-out: Inhibitory activity
[11] = Cmax of aliskiren hemifumarate following 2 week oral dosing of aliskiren hemifumarate at 10 mg.Kg-1 level studied on day 14 in female Callithrix jacchus; assay type: ADME, organism-based; conditions: marmoset, plasma
[12] = Cmax of aliskiren hemifumarate following 4 week oral dietary dosing of aliskiren hemifumarate at 500 mg.Kg-1 level in male mouse; assay type: ADME, organism-based; conditions: CB6F1-TGrasH2, mouse, in vivo
[13] = AUC(0-24h) of aliskiren hemifumarate following 2 week oral dosing of aliskiren hemifumarate at 10 mg.Kg-1 level studied on day 1 in female Callithrix jacchus; assay type: ADME, organism-based; conditions: marmoset, plasma
[14] = AUC(0-24h) of aliskiren hemifumarate following 2 week oral dosing of aliskiren hemifumarate at 10 mg.Kg-1 level studied on day 14 in female Callithrix jacchus; assay type: ADME, organism-based; conditions: marmoset, plasma
[15] = AUCspec of aliskiren hemifumarate following 2 week oral dosing of aliskiren hemifumarate at 50 mg.Kg-1 level studied on day 1 in male Callithrix jacchus; assay type: ADME, organism-based, Plasma; conditions: marmoset, in vivo, 336 h
[16] = AUCspec of aliskiren hemifumarate following 2 week oral dosing of aliskiren hemifumarate at 10 mg.Kg-1 level studied on day 1 in female Callithrix jacchus; assay type: ADME, organism-based, Plasma; conditions: marmoset, in vivo, 336 h
[17] = AUCspec of aliskiren hemifumarate following 2 week oral dosing of aliskiren hemifumarate at 100 mg.Kg-1 level studied on day 14 in female Callithrix jacchus; assay type: ADME, organism-based, Plasma; conditions: marmoset, in vivo, 336 h
[18] = Tmax (0-168h) of unlabeled aliskiren hemifumarate following single intravenous administration of aliskiren hemifumarate at 1 mg.Kg-1 level in marmoset; assay type: ADME, organism-based, Callithrix jacchus; conditions: plasma
[19] = AUC (0-96 or 0-168h) of unlabeled aliskiren hemifumarate following single intravenous administration of aliskiren hemifumarate at 1 mg.Kg-1 level in marmoset; assay type: ADME, organism-based, Callithrix jacchus; conditions: plasma
[20] = AUC/dose (0-168h) of unlabeled aliskiren hemifumarate following single intravenous administration of aliskiren hemifumarate at 1 mg.Kg-1 level in marmoset; assay type: ADME, organism-based, Callithrix jacchus, Plasma; conditions: in vivo
[21] = % SPP100 in faeces following single oral dose of 300 mg [14C]SPP100 studied in healthy men; assay type: ADME, organism-based, Feces; conditions: human, in vivo, at 300 mg
CYP1A2 = molecular target: T1, CYP1A2 (Homo sapiens, UniProt P05177); test: Inhibitory activity of 200 uM SPP100 on 578 Pmoles of cDNA-derived CYP1A2 enzyme in microsome prepared from human lymphoblastoid cell line; assay type: ADME, microsomes; set-up: conc 200 uM, interact cpd conc 50 uM; conditions: probe phenacetin
T1 sequence (P05177 whole entry): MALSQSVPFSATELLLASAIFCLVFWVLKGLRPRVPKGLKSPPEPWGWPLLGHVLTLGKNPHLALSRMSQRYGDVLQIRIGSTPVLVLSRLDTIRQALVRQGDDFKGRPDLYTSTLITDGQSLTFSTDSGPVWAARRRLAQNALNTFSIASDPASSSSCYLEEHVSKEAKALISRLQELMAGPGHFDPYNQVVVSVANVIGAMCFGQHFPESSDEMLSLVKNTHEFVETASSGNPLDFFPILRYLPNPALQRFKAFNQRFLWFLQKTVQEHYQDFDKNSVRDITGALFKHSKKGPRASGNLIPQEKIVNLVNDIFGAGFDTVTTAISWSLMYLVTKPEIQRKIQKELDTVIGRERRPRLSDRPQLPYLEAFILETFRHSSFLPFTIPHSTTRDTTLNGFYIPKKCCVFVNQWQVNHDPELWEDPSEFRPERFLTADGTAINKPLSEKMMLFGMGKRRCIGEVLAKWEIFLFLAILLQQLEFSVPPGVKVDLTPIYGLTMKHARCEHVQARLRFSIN

CYP2A6 = molecular target: T2, CYP2A6 (Homo sapiens, UniProt P11509); test: Inhibitory activity of 20 uM SPP100 on 37 Pmoles of cDNA-derived CYP2A6 enzyme in microsome prepared from human lymphoblastoid cell line; assay type: ADME, microsomes; set-up: conc 20 uM, interact cpd conc 3 uM; conditions: probe coumarine
T2 sequence (P11509 whole entry): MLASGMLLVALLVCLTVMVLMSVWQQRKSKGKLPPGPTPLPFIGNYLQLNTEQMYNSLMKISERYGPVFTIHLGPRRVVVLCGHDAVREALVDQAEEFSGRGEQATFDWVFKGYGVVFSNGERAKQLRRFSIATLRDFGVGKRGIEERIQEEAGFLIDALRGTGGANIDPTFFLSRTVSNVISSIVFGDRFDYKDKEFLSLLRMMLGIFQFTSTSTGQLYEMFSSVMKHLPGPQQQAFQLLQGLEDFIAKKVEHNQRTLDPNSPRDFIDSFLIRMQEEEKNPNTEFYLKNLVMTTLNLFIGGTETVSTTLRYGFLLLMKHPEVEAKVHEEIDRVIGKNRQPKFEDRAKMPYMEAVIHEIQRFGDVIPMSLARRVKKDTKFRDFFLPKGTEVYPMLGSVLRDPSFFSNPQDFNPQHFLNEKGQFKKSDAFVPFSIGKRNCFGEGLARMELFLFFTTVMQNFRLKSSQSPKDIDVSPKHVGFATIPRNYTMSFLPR

[22] = % SPP100 recovered in hydrolysed following single intravenous administration of 10 mg.Kg-1 [14C] aliskiren hemifumarate in male rat; assay type: ADME, organism-based, HAN:WIST(SPF), Bile; conditions: in vivo
[23] = %Unchanged aliskiren in faeces following 10 day repeated oral administration of [14C] aliskiren hemifumarate at 100 mg.Kg-1 level studied in rat; assay type: ADME, organism-based, Albino HAN:WIST, Feces; conditions: in vivo, 240 h

Chain of Cytochrome P450 3A4 (P08684 whole entry): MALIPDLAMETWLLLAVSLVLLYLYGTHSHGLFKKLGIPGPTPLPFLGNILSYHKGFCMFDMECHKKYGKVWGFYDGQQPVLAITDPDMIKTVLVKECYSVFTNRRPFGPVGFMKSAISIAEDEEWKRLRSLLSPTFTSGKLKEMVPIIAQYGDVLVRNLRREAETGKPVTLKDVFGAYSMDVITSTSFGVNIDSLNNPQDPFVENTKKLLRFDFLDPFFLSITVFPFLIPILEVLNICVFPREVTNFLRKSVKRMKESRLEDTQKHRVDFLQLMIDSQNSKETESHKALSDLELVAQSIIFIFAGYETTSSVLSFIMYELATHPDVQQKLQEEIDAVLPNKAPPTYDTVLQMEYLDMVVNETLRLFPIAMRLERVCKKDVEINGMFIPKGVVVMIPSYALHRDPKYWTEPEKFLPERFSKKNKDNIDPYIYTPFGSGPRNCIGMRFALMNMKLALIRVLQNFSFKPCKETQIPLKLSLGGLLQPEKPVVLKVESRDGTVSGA
Chain of hERG (KCNH2) (Q12809 whole entry): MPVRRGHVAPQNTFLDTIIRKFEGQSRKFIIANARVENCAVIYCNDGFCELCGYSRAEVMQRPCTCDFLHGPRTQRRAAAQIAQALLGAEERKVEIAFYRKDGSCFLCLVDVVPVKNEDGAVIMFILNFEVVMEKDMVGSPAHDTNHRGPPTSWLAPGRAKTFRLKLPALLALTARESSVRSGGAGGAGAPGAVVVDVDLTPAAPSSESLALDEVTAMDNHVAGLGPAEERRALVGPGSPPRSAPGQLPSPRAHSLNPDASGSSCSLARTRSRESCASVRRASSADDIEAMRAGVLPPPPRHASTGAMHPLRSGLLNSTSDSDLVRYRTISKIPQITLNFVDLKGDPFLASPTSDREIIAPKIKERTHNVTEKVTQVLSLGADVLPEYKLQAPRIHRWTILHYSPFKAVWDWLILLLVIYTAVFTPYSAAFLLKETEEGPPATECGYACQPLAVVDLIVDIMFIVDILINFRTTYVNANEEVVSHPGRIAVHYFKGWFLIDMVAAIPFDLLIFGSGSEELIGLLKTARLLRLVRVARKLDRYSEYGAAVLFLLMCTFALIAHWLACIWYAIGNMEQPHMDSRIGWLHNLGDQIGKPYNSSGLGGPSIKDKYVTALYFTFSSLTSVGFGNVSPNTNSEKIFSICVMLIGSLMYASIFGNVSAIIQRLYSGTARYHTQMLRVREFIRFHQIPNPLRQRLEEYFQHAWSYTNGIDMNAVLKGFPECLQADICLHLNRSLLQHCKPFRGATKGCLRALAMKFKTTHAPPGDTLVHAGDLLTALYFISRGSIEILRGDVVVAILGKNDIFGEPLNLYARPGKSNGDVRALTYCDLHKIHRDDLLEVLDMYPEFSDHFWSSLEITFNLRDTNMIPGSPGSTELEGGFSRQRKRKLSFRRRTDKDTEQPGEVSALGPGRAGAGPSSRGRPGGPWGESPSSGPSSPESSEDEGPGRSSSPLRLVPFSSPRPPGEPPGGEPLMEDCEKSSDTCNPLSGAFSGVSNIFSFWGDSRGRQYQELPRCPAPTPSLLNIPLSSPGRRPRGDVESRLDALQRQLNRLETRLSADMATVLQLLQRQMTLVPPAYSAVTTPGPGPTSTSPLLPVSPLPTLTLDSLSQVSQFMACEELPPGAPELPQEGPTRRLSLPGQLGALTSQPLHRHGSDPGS

Q: Which t1/2 [1] does the source give for `COCCCOc1cc(C[C@@H](C[C@H](N)[C@@H](O)C[C@H](C(=O)NCC([14CH3])([14CH3])C(N)=O)C(C)C)C(C)C)ccc1OC.O=C(O)/C=C/C(=O)O` here?
A: Its t1/2 is 45.5 h.

Q: And the t1/2 [2]?
A: The t1/2 was 39.5 h.

Q: And the Radiolabel recovery [3]?
A: Its Radiolabel recovery is 4.5%.

Q: And the Radiolabel recovery [4]?
A: The Radiolabel recovery was 72%.

Q: And the Radiolabel recovery [5]?
A: Its Radiolabel recovery is “OUTCOME = Observed, VALUE = Elimination of aliskiren occurred mainly via the biliary or faecal route”.

Q: And the Radiolabel recovery [6]?
A: The Radiolabel recovery was 69.49%.

Q: What about the Radiolabel recovery [7] of the same compound?
A: Its Radiolabel recovery is 1.82%.

Q: And the Radiolabel recovery [8]?
A: The Radiolabel recovery was 0.47%.

Q: What about the Radiolabel recovery [9] of the same compound?
A: Its Radiolabel recovery is 16.3%.

Q: And the Radiolabel recovery [10]?
A: The Radiolabel recovery was 95.1%.

Q: And the Activity (Cytochrome P450 3A4)?
A: The Activity was 99.6%.

Q: With `COCCCOc1cc(C[C@@H](C[C@H](N)[C@@H](O)C[C@H](C(=O)NCC(C)(C)C(N)=O)C(C)C)C(C)C)ccc1OC.COCCCOc1cc(C[C@@H](C[C@H](N)[C@@H](O)C[C@H](C(=O)NCC(C)(C)C(N)=O)C(C)C)C(C)C)ccc1OC.O=C(O)/C=C/C(=O)O` [ALISKIREN FUMARATE] as the compound, how does the inhibition at 1000 µM (hERG (KCNH2)) read?
A: The inhibition at 1000 µM was 32%.

Q: And the Cmax [11]?
A: Its Cmax is 6730 ng/mL.

Q: And the Cmax [12]?
A: The Cmax was 312 ng/mL.

Q: And the AUC(0-t) at 24 h [13]?
A: Its AUC(0-t) at 24 h is 21300 ng·h/mL.

Q: And the AUC at 24 h [14]?
A: The AUC at 24 h was 29000 ng·h/mL.

Q: What about the AUC normalised [15] of the same compound?
A: Its AUC normalised is 1.16 ((ug.h.ml-1)/(mg/kg).

Q: What about the AUC normalised [16] of the same compound?
A: Its AUC normalised is 2.13 ((ug.h.ml-1)/(mg/kg).

Q: And the AUC normalised [17]?
A: The AUC normalised was 1.42 ((ug.h.ml-1)/(mg/kg).

Q: And the Tmax [18]?
A: Its Tmax is 4.98 min.

Q: And the AUC at 168 h [19]?
A: Its AUC at 168 h is 49 µM·h.

Q: What about the AUC normalised [20] of the same compound?
A: The AUC normalised was 49 (umol.h/L)/(mg/kg).

Q: Which results are given for `COCCCOc1cc(C[C@@H](C[C@H](N)[C@@H](O)C[C@H](C(=O)NCC(C)(C)C(N)=O)C(C)C)C(C)C)ccc1OC`?
A: Compound recovery [21]: 77.5%; inhibition at 200 µM (CYP1A2): -12.4%; inhibition at 20 µM (CYP2A6): 2.6%; Compound recovery [22]: 61.8%; Compound recovery [23]: 80%

From ChEMBL document CHEMBL3508693 (2016)
